16 molecules from patent US7772177B2, “BIR domain binding compounds” (Aegera Therapeutics, Inc., priority 2005, dated 2010) can be followed below.

Holding throughout (assay type): binding
For one test, the target named is T1, GST-XIAP BIR3RING (Homo sapiens, UniProt P98170).
T1 construct: made in house; host or cells: E. coli DH5-alpha
The test is described as follows: Fluorescence polarization-based competition assay, XIAP Bir3-RING. Here is the method:
GST-XIAP BIR3RING: XIAP coding sequence amino acids 246-497 cloned into PGEX2T1 via BamH1 and AVA I. The plasmid was transformed into E. coli DH5α for use in protein expression and purification.
(§1) A fluorescent peptide probe, Fmoc-Ala-Val-Pro-Phe-Tyr(t-Bu)-Leu-Pro-Gly(t-Bu)-Gly-OH was prepared using standard Fmoc chemistry on 2-chlorotrityl chloride resin (Int. J. Pept. Prot. Res. 38:555-561, 1991). Cleavage from the resin was performed using 20% acetic acid in dichloromethane (DCM), which left the side chain still blocked. The C-terminal protected carboxylic acid was coupled to 4′-(aminomethyl)fluorescein (Molecular Probes, A-1351; Eugene, Oreg.) using excess diisopropylcarbodiimide (DIC) in dimethylformamide (DMF) at room temperature and was purified by silica gel chromatography (10% methanol in DCM). The N-terminal Fmoc protecting group was removed using piperidine (20%) in DMF, and purified by silica gel chromatography (20% methanol in DCM, 0.5% HOAc). Finally, the t-butyl side chain protective groups were removed using 95% trifluoroacetic acid containing 2.5% water and 2.5% triisopropyl silane. […] Compound #174 was also used as a fluorescent probe in this assay.
(§2) For all assays, the fluorescence and fluorescence-polarization was evaluated using a Tecan Polarion instrument with the excitation filter set at 485 nm and the emission filter set at 535 nm. For each assay, the concentration of the target protein was first establish by titration of the selected protein in order to produce a linear dose-response signal when incubated alone in the presence of the fluorescent probe. Upon establishing these conditions, the compounds potency (IC50) and selectivity, was assessed in the presence of a fix defined-amount of target protein and fluorescent probe and a 10 point serial dilution of the selected compounds. For each IC50 curve, the assays were run as followed: 25 ul/well of diluted compound in 50 mM MES buffer pH 6.5 were added into a black 96 well plate then 25 ul/well of bovine serum albumin (BSA) at 0.5 mg/ml in 50 mM MES pH 6.5. Auto-fluorescence for each compound was first assessed by performing a reading of the compound/BSA solution alone. Then 25 ul of the fluorescein probe diluted into 50 mM MES containing 0.05 mg/ml BSA were added and a reading to detect quenching of fluorescein signal done. Finally 25 ul/well of the target or control protein (GST-BIRs) diluted at the appropriate concentration in 50 mM MES containing 0.05 mg/ml BSA were added and the fluorescence polarization evaluated.
(§3) For each assay the relative polarization-fluorescence units were plotted against the final concentrations of compound and the IC50 calculated using the Grad pad prism software and/or Cambridge soft. The ki value were derived from the calculated IC50 value as described above and according to the equation described in Nikolovska-Coleska, Z. (2004) Anal Biochem 332, 261-273.
(§4) Compounds exemplified in Table 6 were tested and found to have IC50s in the following ranges: A: >10 μM; B: <10 μM; C: <1 μM using the fluorescence polarization assay, as shown in Table 5. Each of the IC50s was calculated from Graph Pad.

A further test concerns the target T2, GST-HIAP1(cIAP-2) BIR 3 (Homo sapiens, UniProt Q13489).
T2 construct: made in house; host or cells: E. coli DH5-alpha
The test can be described thus: Fluorescence polarization-based competition assay, cIAP-2 Bir3. Here is the method:
GST-HIAP1(cIAP-2) BIR 3: HIAP1 coding sequence from amino acids 236-349, cloned into PGex4T3 via BamH1 and XhoI. The plasmid was transformed into E. coli DH5α for use in protein expression and purification.
as §1, §2, §3, §4

The target in a further test is T3, GST-HIAP2 (cIAP-1) BIR 3 (Homo sapiens, UniProt Q13490).
T3 construct: made in house; host or cells: E. coli DH5-alpha
The test is described as follows: Fluorescence polarization-based competition assay, cIAP-1 Bir3. The procedure: GST-HIAP2 (cIAP-1) BIR 3: HIAP2 coding sequence from amino acids 251-363 cloned into PGex4T3 via BamH1 and XhoI. The plasmid was transformed into E. coli DH5α for use in protein expression and purification.
as §1, §2, §3, §4

Molecules are shown by their SMILES. Some results are limits rather than exact numbers.

T2 sequence (Q13489 236-349): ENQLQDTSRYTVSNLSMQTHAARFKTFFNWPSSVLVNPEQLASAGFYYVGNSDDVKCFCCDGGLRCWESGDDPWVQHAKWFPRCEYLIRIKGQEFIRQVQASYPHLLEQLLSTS
T3 sequence (Q13490 251-363): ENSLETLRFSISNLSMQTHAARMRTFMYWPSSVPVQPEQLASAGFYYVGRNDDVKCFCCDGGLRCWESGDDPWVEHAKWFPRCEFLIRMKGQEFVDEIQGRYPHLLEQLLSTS
T1 sequence (P98170 246-497): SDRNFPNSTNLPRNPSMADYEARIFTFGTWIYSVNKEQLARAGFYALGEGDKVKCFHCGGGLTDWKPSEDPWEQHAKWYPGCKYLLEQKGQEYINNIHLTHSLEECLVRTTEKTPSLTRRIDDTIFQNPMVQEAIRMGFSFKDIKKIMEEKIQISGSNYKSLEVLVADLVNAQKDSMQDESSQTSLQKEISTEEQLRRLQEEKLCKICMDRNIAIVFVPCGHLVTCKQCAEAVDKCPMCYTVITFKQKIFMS

On to `CN[C@@H](C)C(=O)N[C@H](C(=O)N1CCC[C@H]1CN(CCc1ccccc1)C(=O)[C@@H](C)N)C(C)(C)C` [Compound 36], for which the IC50 is under 10000 nM on GST-XIAP BIR3RING, under 1000 nM at GST-HIAP1(cIAP-2) BIR 3 and under 1000 nM on GST-HIAP2 (cIAP-1) BIR 3.

On to `CN[C@@H](C)C(=O)N[C@H](C(=O)N1CCC[C@H]1CN(CCc1ccccc1)C(=O)[C@H](C)N)C(C)(C)C` [Compound 37], for which the half-maximal inhibitory concentration (IC50) on GST-XIAP BIR3RING, at GST-HIAP1(cIAP-2) BIR 3 and at GST-HIAP2 (cIAP-1) BIR 3 was under 1000 nM each time.

Regarding `CN[C@@H](C)C(=O)N[C@H](C(=O)N1CCC[C@H]1CN(CCc1ccccc1)C(=O)CN(C)C)C(C)(C)C` [Compound 38], the IC50 at GST-XIAP BIR3RING, at GST-HIAP1(cIAP-2) BIR 3 and on GST-HIAP2 (cIAP-1) BIR 3 was under 1000 nM each time.

With `CC[C@H](N)C(=O)N(CCc1ccccc1)C[C@@H]1CCCN1C(=O)[C@@H](NC(=O)[C@H](C)NC)C(C)(C)C` [Compound 39], the IC50 at GST-XIAP BIR3RING, on GST-HIAP1(cIAP-2) BIR 3 and at GST-HIAP2 (cIAP-1) BIR 3 was under 1000 nM throughout.

As for `CN[C@@H](C)C(=O)N[C@H](C(=O)N1CCC[C@H]1CN(CCc1ccccc1)C(=O)CNc1ccccc1)C(C)(C)C` [Compound 40], the 50% inhibitory concentration (IC50) at GST-XIAP BIR3RING, at GST-HIAP1(cIAP-2) BIR 3 and at GST-HIAP2 (cIAP-1) BIR 3 was under 1000 nM throughout.

As for `CN[C@@H](C)C(=O)N[C@H](C(=O)N1CCC[C@H]1CN(CCc1ccccc1)C(=O)CCCN)C(C)(C)C` [Compound 41], the figures for the half-maximal inhibitory concentration (IC50) on GST-XIAP BIR3RING, at GST-HIAP1(cIAP-2) BIR 3 and at GST-HIAP2 (cIAP-1) BIR 3 were under 10000 nM, under 1000 nM and under 1000 nM, respectively.

`CN[C@@H](C)C(=O)N[C@H](C(=O)N1CCC[C@H]1CN(CCc1ccccc1)C(=O)CNC(C)=O)C(C)(C)C` [Compound 43]: the 50% inhibitory concentration (IC50) on GST-XIAP BIR3RING, on GST-HIAP1(cIAP-2) BIR 3 and at GST-HIAP2 (cIAP-1) BIR 3 was under 1000 nM in each case.

For `CC[C@@H](N)C(=O)N(CCc1ccccc1)C[C@@H]1CCCN1C(=O)[C@@H](NC(=O)[C@H](C)NC)C(C)(C)C` [Compound 46], the IC50 on GST-XIAP BIR3RING, at GST-HIAP1(cIAP-2) BIR 3 and on GST-HIAP2 (cIAP-1) BIR 3 was under 1000 nM in each case.

Turning to `CN[C@@H](C)C(=O)N[C@H](C(=O)N1CCC[C@H]1CN(CCc1ccccc1)C(=O)c1ccccc1)C(C)(C)C` [Compound 47], the IC50 on GST-XIAP BIR3RING, at GST-HIAP1(cIAP-2) BIR 3 and at GST-HIAP2 (cIAP-1) BIR 3 was under 1000 nM throughout.

Take `CN[C@@H](C)C(=O)N[C@@H](CCCN)C(=O)N1CCC[C@H]1CN(CCc1ccccc1)C(=O)CCc1ccccc1` [Compound 49]: the 50% inhibitory concentration (IC50) on GST-XIAP BIR3RING, on GST-HIAP1(cIAP-2) BIR 3 and on GST-HIAP2 (cIAP-1) BIR 3 was under 1000 nM in each case.

For the molecule `CN[C@@H](C)C(=O)N[C@H](C(=O)N1CCC[C@H]1CN(CCc1ccccc1)C(=O)[C@H]1CCCN1)C(C)(C)C` [Compound 50], the IC50 at GST-XIAP BIR3RING, at GST-HIAP1(cIAP-2) BIR 3 and on GST-HIAP2 (cIAP-1) BIR 3 was under 1000 nM each time.

As to `CN[C@@H](C)C(=O)N[C@H](C(=O)N1CCC[C@H]1CN(CCc1ccccc1)C(=O)[C@@H]1CCCN1)C(C)(C)C` [Compound 51], the IC50 on GST-XIAP BIR3RING, at GST-HIAP1(cIAP-2) BIR 3 and at GST-HIAP2 (cIAP-1) BIR 3 was under 1000 nM in each case.

Regarding `CN[C@@H](C)C(=O)N[C@H](C(=O)N1CCC[C@H]1CN(CCc1ccccc1)C(=O)[C@H](N)Cc1ccc(OC)cc1)C(C)(C)C` [Compound 54], the IC50 at GST-XIAP BIR3RING, at GST-HIAP1(cIAP-2) BIR 3 and at GST-HIAP2 (cIAP-1) BIR 3 was under 1000 nM each time.

Regarding `CN[C@@H](C)C(=O)N[C@H](C(=O)N1CCC[C@H]1CN(CCc1ccccc1)C(=O)[C@H](N)Cc1cccnc1)C(C)(C)C` [Compound 55], the IC50 at GST-XIAP BIR3RING, on GST-HIAP1(cIAP-2) BIR 3 and on GST-HIAP2 (cIAP-1) BIR 3 was under 1000 nM each time.

With `CN[C@@H](C)C(=O)N[C@H](C(=O)N1CCC[C@H]1CN(CCc1ccccc1)C(=O)[C@H](N)Cc1ccncc1)C(C)(C)C` [Compound 56], the IC50 at GST-XIAP BIR3RING, at GST-HIAP1(cIAP-2) BIR 3 and on GST-HIAP2 (cIAP-1) BIR 3 was under 1000 nM throughout.

As to `CN[C@@H](C)C(=O)N[C@H](C(=O)N1CCC[C@H]1CN(CCc1ccccc1)C(=O)Cc1ccccc1)C(C)(C)C` [Compound 57], the half-maximal inhibitory concentration (IC50) at GST-XIAP BIR3RING, on GST-HIAP1(cIAP-2) BIR 3 and on GST-HIAP2 (cIAP-1) BIR 3 was under 1000 nM each time.
